Measurements reported in ChEMBL document CHEMBL3774345, “Synthesis of new diarylamides with pyrimidinyl pyridine scaffold and evaluation of their anti-proliferative effect on cancer cell lines” (Bioorg Med Chem Lett, 2016).

Experiments:
[1] = Cytotoxicity against human OVCAR8 cells assessed as cell growth at 10^-8 M after 24 hrs by SRB assay; type: functional; conditions: OVCAR-8, 24 h, read-out: Activity
786-0 = assay: Cytotoxicity against human 786-0 cells assessed as cell growth at 10^-8 M after 24 hrs by SRB assay; type: functional; conditions: 786-0, 24 h, read-out: Activity
MDA-MB-231 = assay: Cytotoxicity against human MDA-MB-231 cells assessed as cell growth at 10^-8 M after 24 hrs by SRB assay; type: functional; conditions: MDA-MB-231, 24 h, read-out: Activity
[2] = Cytotoxicity against human BT549 cells assessed as cell growth at 10^-8 M after 24 hrs by SRB assay; type: functional; conditions: BT-549, 24 h, read-out: Activity
EKVX = assay: Cytotoxicity against human EKVX cells assessed as cell growth at 10^-7 M after 24 hrs by SRB assay; type: functional; conditions: read-out: Activity
NCI-H226 = assay: Cytotoxicity against human NCI-H226 cells assessed as cell growth at 10^-7 M after 24 hrs by SRB assay; type: functional; conditions: NCI-H226, 24 h, read-out: Activity
[3] = Cytotoxicity against human RPMI8226 cells assessed as cell growth at 10^-4 M after 24 hrs by SRB assay; type: functional; conditions: RPMI-8226, 24 h, read-out: Activity
[4] = Cytotoxicity against human OVCAR8 cells assessed as cell growth at 10^-7 M after 24 hrs by SRB assay; type: functional; conditions: OVCAR-8, 24 h, read-out: Activity
[5] = Cytotoxicity against human HOP62 cells after 24 hrs by SRB assay; type: functional; conditions: HOP-62, 24 h
NCI-H23 [6] = assay: Cytotoxicity against human NCI-H23 cells after 24 hrs by SRB assay; type: functional; conditions: NCI-H23, 24 h
[7] = Cytotoxicity against human HCT15 cells after 24 hrs by SRB assay; type: functional, cell-based; conditions: HCT-15, 24 h
MDA-MB-435 = assay: Cytotoxicity against human MDA-MB-435 cells after 24 hrs by SRB assay; type: functional, cell-based; conditions: MDA-MB-435, 24 h
MCF7 [8] = assay: Cytotoxicity against human MCF7 cells assessed as cell growth at 10^-7 M after 24 hrs by SRB assay; type: functional; conditions: MCF7, 24 h, read-out: Activity
[9] = Cytotoxicity against human DU145 cells assessed as cell growth at 10^-4 M after 24 hrs by SRB assay; type: functional; conditions: DU-145, 24 h, read-out: Activity
NCI-H23 [10] = assay: Cytotoxicity against human NCI-H23 cells assessed as cell growth at 10^-6 M after 24 hrs by SRB assay; type: functional; conditions: NCI-H23, 24 h, read-out: Activity
[11] = Cytotoxicity against human OVCAR3 cells assessed as cell growth at 10^-6 M after 24 hrs by SRB assay; type: functional; conditions: OVCAR-3, 24 h, read-out: Activity
[12] = Cytotoxicity against human Caki1 cells assessed as cell growth at 10^-6 M after 24 hrs by SRB assay; type: functional; conditions: CAKI-1, 24 h, read-out: Activity
[13] = Cytotoxicity against human PC3 cells assessed as cell growth at 10^-6 M after 24 hrs by SRB assay; type: functional; conditions: PC-3, 24 h, read-out: Activity
[14] = Cytotoxicity against human IGROV1 cells after 24 hrs by SRB assay; type: functional; conditions: IGROV-1, 24 h
[15] = Cytotoxicity against human RXF393 cells after 24 hrs by SRB assay; type: functional, cell-based; conditions: RXF 393, 24 h
[16] = Cytotoxicity against human UO31 cells after 24 hrs by SRB assay; type: functional, cell-based; conditions: UO-31, 24 h
[17] = Cytotoxicity against human PC3 cells after 24 hrs by SRB assay; type: functional; conditions: PC-3, 24 h
MCF7 [18] = assay: Cytotoxicity against human MCF7 cells after 24 hrs by SRB assay; type: functional; conditions: MCF7, 24 h
K562 [19] = assay: Cytotoxicity against human K562 cells after 24 hrs by SRB assay; type: functional; conditions: K562, 24 h
NCI-H23 [20] = assay: Cytotoxicity against human NCI-H23 cells assessed as cell growth at 10^-8 M after 24 hrs by SRB assay; type: functional; conditions: NCI-H23, 24 h, read-out: Activity
[21] = Cytotoxicity against human SF268 cells assessed as cell growth at 10^-5 M after 24 hrs by SRB assay; type: functional; conditions: SF-268, 24 h, read-out: Activity
[22] = Cytotoxicity against human SNB75 cells assessed as cell growth at 10^-5 M after 24 hrs by SRB assay; type: functional; conditions: SNB-75, 24 h, read-out: Activity
[23] = Cytotoxicity against human TK10 cells assessed as cell growth at 10^-5 M after 24 hrs by SRB assay; type: functional; conditions: TK-10, 24 h, read-out: Activity
K562 [24] = assay: Cytotoxicity against human K562 cells assessed as cell growth at 10^-4 M after 24 hrs by SRB assay; type: functional; conditions: K562, 24 h, read-out: Activity
SK-MEL-2 = assay: Cytotoxicity against human SK-MEL-2 cells assessed as growth inhibition at 10 uM after 24 hrs by SRB assay; type: functional; conditions: SK-MEL-2, 24 h, read-out: GI
[25] = read-out: LC50 (the source's name)
[26] = read-out: pLC50 (the source's name) (converted)

## O=C(Nc1cc(-c2cccnc2)nc(NCCCN2CCOCC2)n1)c1cc(Br)cc(C(F)(F)F)c1
[1]
  growth at 0.01 µM: 106%
786-0
  growth at 0.01 µM: 93%
MDA-MB-231
  growth at 0.01 µM: 90%
[2]
  growth at 0.01 µM: 95%
EKVX
  growth at 0.1 µM: 80%
NCI-H226
  growth at 0.1 µM: 93%
[3]
  growth at 100 µM: -24%
[4]
  growth at 0.1 µM: 101%
[5]; read-out: GI50
  GI50: 2.71 µM
[5]; [25]
  CC50: 32.8 µM
[5]; read-out: TGI
  TGI: 9.98 µM
[5]; read-out: pGI50 (converted)
  GI50: 2.69 µM
[5]; [26]
  CC50: 33.1 µM
[5]; read-out: pTGI (converted)
  TGI: 10 µM
NCI-H23 [6]; read-out: GI50
  GI50: 3.55 µM
NCI-H23 [6]; [25]
  CC50: 46.1 µM
NCI-H23 [6]; read-out: TGI
  TGI: 15 µM
NCI-H23 [6]; read-out: pGI50 (converted)
  GI50: 3.55 µM
NCI-H23 [6]; [26]
  CC50: 45.7 µM
NCI-H23 [6]; read-out: pTGI (converted)
  TGI: 15.1 µM
[7]
  IC50: 1.92 µM
[7]; read-out: GI50
  GI50: 1.92 µM
[7]; [25]
  CC50: 19.3 µM
[7]; read-out: TGI
  TGI: 5.28 µM
[7]; read-out: pGI50 (converted)
  GI50: 1.91 µM
[7]; [26]
  CC50: 19.5 µM
[7]; read-out: pTGI
  TGI: 5.25 µM
MDA-MB-435
  IC50: 1.66 µM
MDA-MB-435; read-out: GI50
  GI50: 1.66 µM
MDA-MB-435; [25]
  CC50: 5.98 µM
MDA-MB-435; read-out: TGI
  TGI: 3.15 µM
MDA-MB-435; read-out: pGI50 (converted)
  GI50: 1.66 µM
MDA-MB-435; [26]
  CC50: 6.03 µM
MDA-MB-435; read-out: pTGI (converted)
  TGI: 3.16 µM
MCF7 [8]
  growth at 0.1 µM: 89%
[9]
  growth at 100 µM: -100%
NCI-H23 [10]
  growth at 1 µM: 89%
[11]
  growth at 1 µM: 100%
[12]
  growth at 1 µM: 82%
[13]
  growth at 1 µM: 92%
[14]; read-out: GI50
  GI50: 4.67 µM
[14]; [25]
  CC50: 60.5 µM
[14]; read-out: TGI
  TGI: 19.5 µM
[14]; read-out: pGI50 (converted)
  GI50: 4.68 µM
[14]; [26]
  CC50: 60.3 µM
[14]; read-out: pTGI (converted)
  TGI: 19.5 µM
[15]
  IC50: 1.8 µM
[15]; read-out: GI50
  GI50: 1.8 µM
[15]; [25]
  CC50: 7.23 µM
[15]; read-out: TGI
  TGI: 3.61 µM
[15]; read-out: pGI50 (converted)
  GI50: 1.82 µM
[15]; [26]
  CC50: 7.24 µM
[15]; read-out: pTGI (converted)
  TGI: 3.63 µM
[16]
  IC50: 1.4 µM
[16]; read-out: GI50
  GI50: 1.4 µM
[16]; [25]
  CC50: 8.19 µM
[16]; read-out: TGI
  TGI: 3.39 µM
[16]; read-out: pGI50 (converted)
  GI50: 1.41 µM
[16]; [26]
  CC50: 8.13 µM
[16]; read-out: pTGI (converted)
  TGI: 3.39 µM
[17]; read-out: GI50
  GI50: 4.03 µM
[17]; [25]
  CC50: 42.7 µM
[17]; read-out: TGI
  TGI: 15.7 µM
[17]; read-out: pGI50 (converted)
  GI50: 4.07 µM
[17]; [26]
  CC50: 42.7 µM
[17]; read-out: pTGI (converted)
  TGI: 15.8 µM
MCF7 [18]; read-out: GI50
  GI50: 2.17 µM
MCF7 [18]; [25]
  CC50: 44.8 µM
MCF7 [18]; read-out: TGI
  TGI: 9.22 µM
MCF7 [18]; read-out: pGI50 (converted)
  GI50: 2.24 µM
MCF7 [18]; [26]
  CC50: 44.7 µM
MCF7 [18]; read-out: pTGI (converted)
  TGI: 9.12 µM
K562 [19]; read-out: GI50
  GI50: 2.81 µM
K562 [19]; [25]
  CC50: > 100 µM
K562 [19]; read-out: TGI
  TGI: 21.7 µM
K562 [19]; read-out: pGI50 (converted)
  GI50: 2.82 µM
K562 [19]; [26]
  CC50: > 100 µM
K562 [19]; read-out: pTGI (converted)
  TGI: 21.9 µM
NCI-H23 [20]
  growth at 0.01 µM: 98%
[21]
  growth at 10 µM: 1%
[22]
  growth at 10 µM: -60%
[23]
  growth at 10 µM: 34%
K562 [24]
  growth at 100 µM: -7%

## COCCCNc1nc(NC(=O)c2cc(OC)cc(OC)c2)cc(-c2cccnc2)n1
SK-MEL-2
  inhibition of growth at 10 µM: 21.2%
